This data set relates to rodent lifetime carcinogenesis bioassay, tumor incidence TD50. The data set is described as follows: carcinogenic potency in animals, long-term in vivo studies, CPDB compilation (AID 1745844).

The source made the active and inactive calls. No rule for the calls is given here.

For `C=CC(O)c1ccc2c(c1)OCO2` (stereo unspecified), the TD50 reads like this: (mouse, strain (B6C3F1 x B6C3 background, brachymorphic) inter se = B6C3F2 br, females, in feed, site: liver, lesion: hepatoma, dosed 52 weeks, study length 69 weeks) 1530 mg/kg/day; (mouse, strain (B6C3F1 x B6C3 background, brachymorphic) inter se = B6C3F2 ph, females, in feed, site: liver, lesion: hepatoma, dosed 52 weeks, study length 69 weeks) 53.3 mg/kg/day; (mouse, strain Charles River CD1, females, in feed, site: liver, lesion: hepatocellular carcinoma, dosed 51 weeks, study length 73 weeks) 68 mg/kg/day; (mouse, strain Charles River CD1, females, in feed, site: liver, lesion: hepatoma, dosed 52 weeks, study length 69 weeks) 49.1 mg/kg/day; (mouse, strain Charles River CD1, females, in feed, site: lung, lesion: adenoma, dosed 52 weeks, study length 69 weeks) 3670 mg/kg/day; (mouse, strain Charles River CD1, females, in feed, site: subcutaneous tissue, lesion: angiosarcoma, dosed 51 weeks, study length 73 weeks) 1550 mg/kg/day. Moreover, the TD50 reads like this: (mouse, strain Charles River CD1, males, in feed, site: interscapulum, lesion: angiosarcoma, dosed 56 weeks, study length 69 weeks) 429 mg/kg/day; (mouse, strain Charles River CD1, males, in feed, site: liver, lesion: carcinoma, dosed 56 weeks, study length 69 weeks) 18900 mg/kg/day; (mouse, strain Charles River CD1, males, in feed, site: lung, lesion: adenoma, dosed 56 weeks, study length 69 weeks) 5470 mg/kg/day; (rat, strain Charles River CD (Sprague-Dawley), males, in feed, site: forestomach, lesion: papilloma, dosed 36 weeks, study length 52 weeks) 65.8 mg/kg/day; (rat, strain Charles River CD (Sprague-Dawley), males, in feed, site: forestomach, lesion: papilloma, dosed 43 weeks, study length 69 weeks) 59.8 mg/kg/day; (rat, strain Charles River CD (Sprague-Dawley), males, in feed, site: liver, lesion: carcinoma, dosed 36 weeks, study length 52 weeks) 12.1 mg/kg/day. The TD50 (rat, strain Charles River CD (Sprague-Dawley), males, in feed, site: liver, lesion: carcinoma, dosed 43 weeks, study length 69 weeks) is 16.7 mg/kg/day and the TD50 (rat, strain Charles River CD (Sprague-Dawley), males, in feed, site: liver, lesion: hepatocellular carcinoma, dosed 58 weeks, study length 95 weeks) is 47.8 mg/kg/day.
Regarding `CN(N=O)C(=O)c1c(N(C)N=O)ncn1C`, for the setting “rat, strain BD IX, both sexes, by gavage, site: forestomach, lesion: squamous-cell carcinoma, dosed 41 weeks, study length 52 weeks”, the TD50 is 0.183 mg/kg/day.
As to `O=C(O)CCCC/C=C(\c1ccccc1)c1cccnc1`, the carcinogen call (mouse, strain Charles River CD1, females, in feed, site: any site (literature study), lesion: several types, types named in the paper, dosed 104 weeks, study length 104 weeks) is “negative (inactive)”; the carcinogen call (mouse, strain Charles River CD1, females, in feed, site: lung, lesion: alveolar/bronchiolar adenoma, dosed 104 weeks, study length 104 weeks) was “negative (inactive)”; the carcinogen call (mouse, strain Charles River CD1, females, in feed, site: lung, lesion: alveolar/bronchiolar carcinoma, dosed 104 weeks, study length 104 weeks) was “negative (inactive)”; the carcinogen call (mouse, strain Charles River CD1, males, in feed, site: lung, lesion: alveolar/bronchiolar carcinoma, dosed 104 weeks, study length 104 weeks) was “negative (inactive)”; the carcinogen call (rat, strain Charles River CD (Sprague-Dawley), females, in feed, site: liver, lesion: hepatocellular adenoma, dosed 104 weeks, study length 104 weeks) is “negative (inactive)”; the carcinogen call (rat, strain Charles River CD (Sprague-Dawley), males, in feed, site: liver, lesion: hepatocellular adenoma, dosed 104 weeks, study length 104 weeks) is “negative (inactive)”. Moreover, the TD50 (mouse, strain Charles River CD1, females, in feed, site: liver, lesion: hepatocellular adenoma, dosed 104 weeks, study length 104 weeks) was 4930 mg/kg/day (inactive); the TD50 (mouse, strain Charles River CD1, males, in feed, site: any site (literature study), lesion: several types, types named in the paper, dosed 104 weeks, study length 104 weeks) was 1090 mg/kg/day (inactive); the TD50 (mouse, strain Charles River CD1, males, in feed, site: liver, lesion: hepatocellular adenoma, dosed 104 weeks, study length 104 weeks) was 2050 mg/kg/day (inactive); the TD50 (mouse, strain Charles River CD1, males, in feed, site: liver, lesion: hepatocellular carcinoma, dosed 104 weeks, study length 104 weeks) is 10200 mg/kg/day (inactive); the TD50 (mouse, strain Charles River CD1, males, in feed, site: lung, lesion: alveolar/bronchiolar adenoma, dosed 104 weeks, study length 104 weeks) is 1220 mg/kg/day (inactive).

What is called TD50 is the 50% point of the dose-response relation for the toxic effect studied.
